# Assays:
# [1] = tested on: vancomycin-sensitive enterococci; test: In Vitro Activity Against Enterococci, vancomycin-sensitive strains; type: cell-based, Enterococcus faecium and Enterococcus faecalis; conditions: for mean geometric MIC, Vancomycin Sensitive Strains: representative vancomycin-sensitive enterococci (Enterococcus faecium and Enterococcus faecalis)
# Procedure: (§1) The minimal inhibitory concentrations (MICs) were determined using a standard broth micro-dilution assay.
# [2] = tested on: vancomycin-resistant enterococci; test: In Vitro Activity Against Enterococci, vancomycin-resistant strains; type: cell-based; conditions: representative vancomycin-resistant enterococci (Enterococcus faecium and Enterococcus faecalis)
# Procedure: as §1
# [3] = tested on: Streptococcus pneumoniae P1; test: Standard broth micro-dilution MIC, Streptococcus pneumoniae P1; type: cell-based
# Procedure: as §1
# [4] = tested on: Enterococcus gallinarum 245; test: Standard broth micro-dilution MIC, Enterococcus gallinarum 245; type: cell-based
# Procedure: as §1
# [5] = tested on: Staphylococcus aureus SA1199A; test: Standard broth micro-dilution MIC, Staphylococcus aureus SA1199A; type: cell-based
# Procedure: as §1
# [6] = tested on: Staphylococcus aureus 447; test: Standard broth micro-dilution MIC, Staphylococcus aureus 447; type: cell-based
# Procedure: as §1
# [7] = tested on: Staphylococcus aureus 489; test: Standard broth micro-dilution MIC, Staphylococcus aureus 489; type: cell-based
# Procedure: as §1
# Escherichia coli EC14 = test: Standard broth micro-dilution MIC, Escherichia coli EC14; type: cell-based
# Procedure: as §1
# [8] = tested on: Staphylococcus epidermidis 270; test: Standard broth micro-dilution MIC, Staphylococcus epidermidis 270; type: cell-based
# Procedure: as §1
# [9] = tested on: Staphylococcus haemolyticus 415; test: Standard broth micro-dilution MIC, Staphylococcus haemolyticus 415; type: cell-based
# Procedure: as §1
# [10] = tested on: Streptococcus pyogenes C203; test: Standard broth micro-dilution MIC, Streptococcus pyogenes C203; type: cell-based
# Procedure: as §1
# [11] = tested on: Enterococcus faecalis 276; test: Standard broth micro-dilution MIC, Enterococcus faecalis 276; type: cell-based
# Procedure: as §1
# Enterococcus faecium 180 = test: Standard broth micro-dilution MIC, Enterococcus faecium 180; type: cell-based
# Procedure: as §1
# [12] = tested on: Staphylococcus haemolyticus 105; test: Standard broth micro-dilution MIC, Staphylococcus haemolyticus 105; type: cell-based
# Procedure: as §1
# [13] = tested on: Staphylococcus aureus 446; test: Standard broth micro-dilution MIC, Staphylococcus aureus 446; type: cell-based
# Procedure: as §1
# [14] = tested on: Staphylococcus aureus X778; test: Standard broth micro-dilution MIC, Staphylococcus aureus X778; type: cell-based
# Procedure: as §1
# [15] = tested on: Staphylococcus aureus 491; test: Standard broth micro-dilution MIC, Staphylococcus aureus 491; type: cell-based
# Procedure: as §1
# [16] = tested on: Enterococcus faecalis 2041; test: Standard broth micro-dilution MIC, Enterococcus faecalis 2041; type: cell-based
# Procedure: as §1
# [17] = tested on: Staphylococcus aureus SA1199; test: Standard broth micro-dilution MIC, Staphylococcus aureus SA1199; type: cell-based
# Procedure: as §1
# [18] = tested on: Staphylococcus aureus S13E; type: cell-based
# Procedure: as §1
# [19] = tested on: Staphylococcus aureus SA119913; test: Standard broth micro-dilution MIC, Staphylococcus aureus SA119913; type: cell-based
# Procedure: as §1
# [20] = tested on: Staphylococcus aureus X400; test: Standard broth micro-dilution MIC, Staphylococcus aureus X400; type: cell-based
# Procedure: as §1
# [21] = tested on: Enterococcus faecium 180-1; test: Standard broth micro-dilution MIC, Enterococcus faecium 180-1; type: cell-based
# Procedure: as §1
Molecule,"mean geometric MIC, Vancomycin Sensitive Strains [1]","mean geometric MIC, Vancomycin Resistant Strains [2]",MIC [3],MIC [4],MIC [5],MIC [6],MIC [7],MIC [8],MIC [9],MIC [10],MIC [11],MIC (Enterococcus faecium 180),MIC [12],MIC [13],MIC [14],MIC [15],MIC [16],MIC [17],MIC [18],MIC [19],also measured
N^4 -(4(3-(3-(3-(p-formylphenoxy)-n-propyloxy)phenoxy)-n-propyloxy)-benzyl)vancomycin [Compound 52],0.093 µg/mL,4.8 µg/mL,–,–,–,–,–,–,–,–,–,–,–,–,–,–,–,–,–,–,–
N^4 -(4-(3-(3-(3-(p-formylphenoxy)-n-propoxy)-5-phenylphenoxy)-n-propoxy)benzyl)vancomycin [Compound 45],0.33 µg/mL,2.8 µg/mL,0.06 µg/mL,0.5 µg/mL,≤ 0.06 µg/mL,1 µg/mL,2 µg/mL,1 µg/mL,2 µg/mL,0.06 µg/mL,0.25 µg/mL,0.5 µg/mL,0.5 µg/mL,1 µg/mL,0.5 µg/mL,0.5 µg/mL,0.125 µg/mL,0.5 µg/mL,0.5 µg/mL,0.5 µg/mL,MIC (Escherichia coli EC14): > 64 µg/mL; MIC [20]: 0.5 µg/mL
"1,3-phenylene-bis-[(oxy-1,3-n-propyleneoxy-4,1-phenylene)]-methylene]-bis-[vancomycin] [Compound 12]",0.66 µg/mL,4.0 µg/mL,0.06 µg/mL,0.06 µg/mL,1 µg/mL,8 µg/mL,2 µg/mL,4 µg/mL,4 µg/mL,0.06 µg/mL,1 µg/mL,≤ 0.06 µg/mL,4 µg/mL,8 µg/mL,2 µg/mL,2 µg/mL,0.25 µg/mL,4 µg/mL,4 µg/mL,4 µg/mL,MIC [20]: 2 µg/mL
"1,3-phenylenebis[oxy-1,3-n-propylene-oxy-4,1-phenylene)methylene]bis-[A82846B,(3-dimethylaminopropyl)-amide] [Compound 71]",0.38 µg/mL,2.4 µg/mL,0.5 µg/mL,0.5 µg/mL,2 µg/mL,4 µg/mL,2 µg/mL,1 µg/mL,2 µg/mL,0.5 µg/mL,1 µg/mL,2 µg/mL,2 µg/mL,4 µg/mL,2 µg/mL,2 µg/mL,0.5 µg/mL,4 µg/mL,2 µg/mL,2 µg/mL,MIC [21]: 0.5 µg/mL; MIC [20]: 4 µg/mL
N^4 -(4-(8-(p-formylphenoxy)-n-octyloxy)benzyl)vancomycin [Compound 40],0.19 µg/mL,11.3 µg/mL,0.06 µg/mL,1 µg/mL,≤ 0.06 µg/mL,0.25 µg/mL,–,0.25 µg/mL,4 µg/mL,0.06 µg/mL,0.25 µg/mL,1 µg/mL,1 µg/mL,0.5 µg/mL,≤ 0.06 µg/mL,≤ 0.06 µg/mL,0.125 µg/mL,0.25 µg/mL,0.25 µg/mL,1 µg/mL,MIC (Escherichia coli EC14): > 64 µg/mL; MIC [21]: ≤ 0.06 µg/mL
"5-n-pentyl-1,3-phenylene-bis[(oxy-1,3-n-propyleneoxy-4,1-phenylene)methylene]-bis-[vancomycin] [Compound 61]",1.2 µg/mL,2 µg/mL,2 µg/mL,1 µg/mL,1 µg/mL,16 µg/mL,4 µg/mL,4 µg/mL,8 µg/mL,1 µg/mL,2 µg/mL,1 µg/mL,1 µg/mL,8 µg/mL,4 µg/mL,2 µg/mL,2 µg/mL,8 µg/mL,16 µg/mL,16 µg/mL,MIC [21]: 0.5 µg/mL; MIC [20]: 8 µg/mL
N^4 -(4-(3-(p-formylphenoxy)-n-propyloxy)benzyl)vancomycin [Compound 34],0.87 µg/mL,53 µg/mL,0.06 µg/mL,1 µg/mL,≤ 0.06 µg/mL,≤ 0.06 µg/mL,≤ 0.06 µg/mL,0.25 µg/mL,2 µg/mL,0.06 µg/mL,≤ 0.06 µg/mL,0.5 µg/mL,0.5 µg/mL,≤ 0.06 µg/mL,≤ 0.06 µg/mL,≤ 0.06 µg/mL,≤ 0.06 µg/mL,≤ 0.06 µg/mL,≤ 0.06 µg/mL,≤ 0.06 µg/mL,MIC [21]: ≤ 0.06 µg/mL; MIC [20]: ≤ 0.06 µg/mL
N^4 -(4-(3-(p-formylphenoxy)-n-propyloxy)benzyl)A82846B [Compound 46],0.17 µg/mL,4.8 µg/mL,≤ 0.06 µg/mL,4 µg/mL,0.125 µg/mL,2 µg/mL,0.5 µg/mL,2 µg/mL,4 µg/mL,≤ 0.06 µg/mL,1 µg/mL,0.5 µg/mL,2 µg/mL,1 µg/mL,0.5 µg/mL,0.5 µg/mL,≤ 0.06 µg/mL,1 µg/mL,0.5 µg/mL,1 µg/mL,MIC (Escherichia coli EC14): > 64 µg/mL; MIC [21]: ≤ 0.06 µg/mL; MIC [20]: 1 µg/mL
"CN[C@H](CC(C)C)C(=O)N[C@H]1C(=O)N[C@@H](CC(N)=O)C(=O)N[C@H]2C(=O)N[C@H]3C(=O)N[C@H](C(=O)N[C@H](C(=O)O)c4cc(O)cc(O)c4-c4cc3ccc4O)[C@H](O[C@H]3C[C@](C)(N)[C@@H](O)[C@H](C)O3)c3ccc(c(Cl)c3)Oc3cc2cc(c3O[C@@H]2O[C@H](CO)[C@@H](O)[C@H](O)[C@H]2O[C@H]2C[C@](C)(N)[C@@H](O)[C@H](C)O2)Oc2ccc(cc2Cl)[C@H]1O [Compound A82846B, A82846B, reference compound]",0.22 µg/mL,29 µg/mL,–,–,≤ 0.06 µg/mL,–,≤ 0.06 µg/mL,–,–,–,–,8 µg/mL,–,–,–,–,–,–,–,–,–
N^4 -(4-(12-(p-formylphenoxy)-n-dodecyloxy)benzyl)vancomycin [Compound 42],1.1 µg/mL,4.5 µg/mL,1 µg/mL,1 µg/mL,1 µg/mL,4 µg/mL,2 µg/mL,4 µg/mL,8 µg/mL,0.25 µg/mL,4 µg/mL,0.5 µg/mL,2 µg/mL,2 µg/mL,1 µg/mL,2 µg/mL,2 µg/mL,2 µg/mL,4 µg/mL,4 µg/mL,MIC (Escherichia coli EC14): > 64 µg/mL; MIC [21]: 1 µg/mL; MIC [20]: 2 µg/mL
"CN[C@H](CC(C)C)C(=O)N[C@H]1C(=O)N[C@@H](CC(N)=O)C(=O)N[C@H]2C(=O)N[C@H]3C(=O)N[C@H](C(=O)N[C@H](C(=O)O)c4cc(O)cc(O)c4-c4cc3ccc4O)[C@H](O)c3ccc(c(Cl)c3)Oc3cc2cc(c3O[C@@H]2O[C@H](CO)[C@@H](O)[C@H](O)[C@H]2O[C@H]2C[C@](C)(N)[C@H](O)[C@H](C)O2)Oc2ccc(cc2Cl)[C@H]1O [Vancomycin, reference compound]",–,–,–,–,–,–,–,–,–,–,1 µg/mL,> 64 µg/mL,–,–,–,–,2 µg/mL,–,–,–,"MIC ([1]; read-out: mean geometric MIC, Vancomycin Sensitive Strains): 3.9 µg/mL"
